Test results taken from article PMC6105804, “In Vitro and In Vivo Evaluation of APX001A/APX001 and Other Gwt1 Inhibitors against Cryptococcus” (Antimicrobial Agents and Chemotherapy, 2018).
Like-named read-outs stand apart in the source and are kept apart here.

Columns and labels:
PIGW protein = system: PIGW protein; design: method as in PMID 22143530; conditions: closest mammalian ortholog of fungal Gwt1; cited from earlier work
[1] = mouse, in vivo; cited from earlier work
[2] = design: method as in ref 23 = [23]; 23. Zhao Y , Lee M , Lee A , Paderu P , Park S , Perlin DS 2018 APX001 is effective against echinocandin and multi-drug resistant Candida isolates . Abstr 28th ECCMID , Madrid, Spain .; conditions: female CD-1 mice, cited from earlier work
[3] = system: Candida tropicalis strains; design: method as in ref 24 = [24]; 24. Watanabe NA , Horii T , Miyazaki M , Hata K 2011 In vitro activity of E1210 and in vivo activity of E1211, a water-soluble prodrug of E1210, in combination with other antifungals, abstr F1-1378 .; conditions: cited from earlier work
[4] = Single-dose mouse pharmacokinetics of prodrugs with or without ABT; format: in vivo; conditions: for AUC: male, CD-1, mouse, plasma, 26 mg/kg
Description: The area under the curve (AUC) was calculated from time zero to the time of the last measurable concentration. The active metabolite concentrations in plasma (APX001A, APX2039, APX2020, and APX2041) were determined by liquid chromatography-tandem mass spectrometry. PK parameters were determined using Phoenix WinNonlin (v7.0) software and a noncompartmental model.

C. neoformans strain H99 = experiment: Murine model of cryptococcal meningitis, APX001 alone and with FLC (no ABT); format: in vivo, Cryptococcus neoformans; conditions: monotherapy 7 days; APX001 390 mg/kg TID oral gavage, FLC 80 mg/kg/day i.p.; male CD-1 mice
Description: The efficacies of APX001 and FLC were evaluated in a well-established mouse CM model ([34]). Since Cryptococcus infections can be hematogenously disseminated to other organs, the numbers of CFU in both lung and brain tissue were evaluated. Male CD-1 mice were infected with 5.9 × 10^4 CFU of C. neoformans strain H99 via lateral tail vein injection. Mice were assigned to four groups (n = 10), consisting of (i) treatment with APX001, (ii) treatment with APX001 plus FLC, (iii) treatment with FLC, or (iv) no treatment as a control. Treatment was initiated within 1 h after infection. APX001 was administered by oral gavage at a dose of 390 mg/kg thrice daily (TID), with each dose being administered roughly 8 h apart. […] FLC (2 mg/ml; Sagent Pharmaceuticals, Schaumburg, IL) was administered at a dose of 80 mg/kg/day intraperitoneally (i.p.).
Brain and lung burdens in mice were measured at 7 days postinfection with C. neoformans H99. Male CD-1 mice were infected with 5.9 × 10^4 CFU of C. neoformans strain H99 via the lateral tail vein. Treatment was initiated at about 1 h postinfection and continued for 7 days. APX001 was administered by oral gavage at a dose of 390 mg/kg thrice daily, with each dose being administered roughly 8 h apart. FLC (2 mg/ml; Sagent Pharmaceuticals, Schaumburg, IL) was administered at a dose of 80 mg/kg/day i.p. once daily. Fungal burden data were log10 transformed and evaluated using Kruskal-Wallis tests with Dunn's multiple-comparison test for post hoc analysis (Prism software, v5; GraphPad Software, Inc., San Diego, CA). A P value of ≤0.05 was considered statistically significant (*, P ≤ 0.05; **, P ≤ 0.01; ***, P ≤ 0.001). The 95% confidence interval (CI) is presented.
C. neoformans strain H99 was grown in yeast extract-peptone-dextrose broth at 30°C on a shaker (220 rpm) for 24 h, centrifuged (1,980 relative centrifugal force), and washed twice in phosphate-buffered saline (PBS), resuspended in PBS, and quantified by hemacytometric count. Male CD-1 mice were infected with ∼5 × 10^4 CFU per mouse via lateral tail vein injection of 100 μl. Mice were weighed, and treatment was begun within 1 h after infection. Treatments were administered daily for 7 days. Mice were weighed daily and observed for acute and chronic adverse symptoms. Mice were sacrificed on day 8, and the brain and left lung were homogenized and cultured for quantitative determination of the tissue burden (number of CFU per gram of tissue). Tissues were homogenized for 25 s in 1 ml phosphate-buffered saline using two 6.5-mm steel beads and a Mini-Beadbeater 16 apparatus (Biospec Products, Inc., Bartlesville, OK) and serially diluted in 10-fold steps. Aliquots (100 μl) of homogenate were plated and incubated for 3 to 7 days at 37°C. Fungal burden data were log10 transformed and evaluated using Kruskal-Wallis tests with Dunn's multiple-comparison test for post hoc analysis (Prism software, v5; GraphPad Software, Inc., San Diego, CA). A P value of ≤0.05 was considered statistically significant.

[5] = 100-mg/kg ABT orally 2 h prior to APX001 i.p.

Ratio of AUC with ABT/AUC without ABT, i.p. dosing ([4]; 26 mg/kg prodrug)	Ratio of AUC with ABT/AUC without ABT, p.o. dosing ([4]; 26 mg/kg prodrug)	AUC ([4]; intraperitoneal, AUC of analyte after 26 mg/kg prodrug, 100 mg/kg ABT orally 2 h before, read-out: Avg AUC resulting from 26-mg/kg dose, i.p. dosing + ABT) [ng·h/mL]	AUC ([4]; ip, AUC of analyte after 26 mg/kg of the corresponding prodrug, male CD-1 mice, no ABT, read-out: Avg AUC resulting from 26-mg/kg dose, i.p. dosing) [ng·h/mL]	AUC ([4]; po, AUC of analyte after 26 mg/kg prodrug, 100 mg/kg ABT orally 2 h before, read-out: Avg AUC resulting from 26-mg/kg dose, p.o. dosing + ABT) [ng·h/mL]	AUC ([4]; po, AUC of analyte in plasma after 26 mg/kg of the corresponding prodrug, male CD-1 mice, no ABT, read-out: Avg AUC resulting from 26-mg/kg dose, p.o. dosing) [ng·h/mL]	SMILES	sensitivity of PIGW protein to inhibition (PIGW protein)	half-life in mice [1] [h]	fold increase in AUC with ABT [2, 5] [fold]	half-life of the active moiety with ABT [2, 5] [h]	half-life of the active moiety without ABT ([2]; APX001 i.p.) [h]	strains with synergy with FLC [3]	reduction in brain fungal burden vs untreated control (C. neoformans strain H99) [log10 CFU/g]	reduction in lung fungal burden vs untreated control (C. neoformans strain H99) [log10 CFU/g]
5.6	15.0	24300 ± 17700	4360 ± 110	41500 ± 8090	2760 ± 230	Nc1ncccc1-c1cc(Cc2ccc(COc3ccccn3)cc2)no1 [APX001A]	not sensitive to inhibition	1.40 to 2.75	9	8.8	1.3	9 of 10		
						OC(Cn1cncn1)(Cn1cncn1)c1ccc(F)cc1F [FLC, fluconazole, reference compound]							1.04	1.30
